# Measured values: publication PMC13376213, “Systematic discovery of motif-based interactions of the auxiliary domains of USP family deubiquitinases” (Nature Communications, 2026)
# Numbering of substitutions follows the chain as printed. Where two headings read alike, the source gives them in different places. Peptide text beside a SMILES is read from it. * marks the point of attachment. FITC = O=C1OC2(c3ccc(O)cc3Oc3cc(O)ccc32)c2ccc(NC(=S)*)cc21
# Experiments:
# USP33 DUSP2 N835A = molecular target: T1, USP33 DUSP2 N835A (Homo sapiens, UniProt Q8TEY7, N835A); assay: FP-monitored affinity measurements, USP33 DUSP2 single mutant; type: binding
# T1 construct: USP33_DUSP2; Q8TEY7; DUSP2; 806; 921; 6xHis-GST (N, cleaved yes); made in house; host or cells: Escherichia coli BL21-Gold (DE3)
# T1 sequence (Q8TEY7 806-921 N835A): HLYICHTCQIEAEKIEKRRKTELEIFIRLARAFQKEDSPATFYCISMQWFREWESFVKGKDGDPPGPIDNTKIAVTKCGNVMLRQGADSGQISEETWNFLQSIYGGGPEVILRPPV
# Protocol: (§1) Proteins were expressed in Escherichia coli (E.coli) BL21-Gold (DE3) bacteria. The cDNAs encoding N-terminal 6-histidine-glutathione S-transferase tagged (6xHis-GST), 6xHis-tagged or GST-tagged protein domains in pETM33, pETM11, pGEX6P1 expression vectors respectively, were obtained from Genescript or kindly provided by MRC-PPU (Suppl. Data 1) The bacteria were transformed with the plasmid and grew at 37 °C in 2YT (5 g/L NaCl, 16 g/L tryptone and 10 g/L yeast extract) supplemented with Kanamycin (30 μg/mL) until reaching an OD600 of 0.7. Protein expression was induced with 0.3 mM isopropyl β-D-1 thiogalactopyranoside (IPTG) for 18 h at 18 °C while shaking. For zinc-finger domains, 50 μM of ZnSO4 was added during expression. […] For fluorescence polarization experiments, the proteins were not eluted from the beads, and the 6xHis-GST tag was cleaved overnight on GSH Sepharose beads at 4 °C while shaking with PreScission Protease in cleavage buffer (50 mM Tris pH 7.5, 150 mM NaCl, 1 mM DTT). […] The purity and size of the proteins were analyzed by SDS-PAGE electrophoresis.
# (§2) The measurements were performed at room temperature in a non-binding black half area 96-well plate (Corning) with a total volume of 50 μL per well. […] The data were analyzed using GraphPad Prism version 9.2.0 for MacOS (GraphPad Software, San Diego, California USA, www.graphpad.com). […]
# USP33 DUSP2 K863E-K865E = molecular target: T2, USP33 DUSP2 K863E-K865E (Homo sapiens, UniProt Q8TEY7, K863E/K865E); assay: FP-monitored affinity measurements, USP33 DUSP2 double mutant; type: binding
# T2 construct: USP33_DUSP2; Q8TEY7; DUSP2; 806; 921; 6xHis-GST (N, cleaved yes); made in house; host or cells: Escherichia coli BL21-Gold (DE3)
# T2 sequence (Q8TEY7 806-921 K863E/K865E): T1 sequence (Q8TEY7 806-921 N835A) with A30N, K58E, K60E
# Protocol: as §1, §2
# USP33 DUSP2 domain = molecular target: T3, USP33 DUSP2 domain (Homo sapiens, UniProt Q8TEY7); assay: FP-monitored affinity measurements, USP33 DUSP2; type: binding; conditions: USP33_DUSP2; direct FP titration (saturation) of the FITC-labelled peptide; read-out: KD
# T3 construct: USP33_DUSP2; Q8TEY7; DUSP2; 806; 921; 6xHis-GST (N, cleaved yes); made in house; host or cells: Escherichia coli BL21-Gold (DE3)
# T3 sequence (Q8TEY7 with tags, fused parts or gaps): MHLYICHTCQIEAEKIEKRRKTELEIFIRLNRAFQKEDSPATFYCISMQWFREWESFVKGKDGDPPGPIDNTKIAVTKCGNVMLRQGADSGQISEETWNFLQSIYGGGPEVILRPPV
# Protocol: Proteins were expressed in Escherichia coli (E.coli) BL21-Gold (DE3) bacteria. The cDNAs encoding N-terminal 6-histidine-glutathione S-transferase tagged (6xHis-GST), 6xHis-tagged or GST-tagged protein domains in pETM33, pETM11, pGEX6P1 expression vectors respectively, were obtained from Genescript or kindly provided by MRC-PPU (Suppl. Data 1) The bacteria were transformed with the plasmid and grew at 37 °C in 2YT (5 g/L NaCl, 16 g/L tryptone and 10 g/L yeast extract) supplemented with Kanamycin (30 μg/mL) until reaching an OD600 of 0.7. Protein expression was induced with 0.3 mM isopropyl β-D-1 thiogalactopyranoside (IPTG) for 18 h at 18 °C while shaking. For zinc-finger domains, 50 μM of ZnSO4 was added during expression. The bacterial cultures were pelleted for 15 minutes at 4000 x g at 4 °C and stored at −20 °C until purification. The pellets were resuspended in lysis buffer (1× phosphate-buffered saline (PBS), 0.5 % Triton-X, 5 mM MgCl2, 10 μg/mL lysozyme, cOmplete^TM EDTA-free protease inhibitor cocktail (Roche), 10 μg/mL DNAseI) and incubated for 1 h shaking at 4 °C. […] The supernatant was incubated with glutathione (GSH) Sepharose (Cytiva) or Ni2+ Sepharose (Cytiva) for 1 h at 4 °C while shaking. The beads with the bound protein were washed with 1x PBS and eluted with 10 mM reduced glutathione in 50 mM Tris pH 8.0. For fluorescence polarization experiments, the proteins were not eluted from the beads, and the 6xHis-GST tag was cleaved overnight on GSH Sepharose beads at 4 °C while shaking with PreScission Protease in cleavage buffer (50 mM Tris pH 7.5, 150 mM NaCl, 1 mM DTT). The sample containing the cleaved domain was separated from the tag and protease and buffer-exchanged to 50 mM sodium phosphate buffer pH 7.4 with 1 mM DTT using a PD-10 desalting column (Cytiva). The purity and size of the proteins were analyzed by SDS-PAGE electrophoresis.
# The measurements were performed at room temperature in a non-binding black half area 96-well plate (Corning) with a total volume of 50 μL per well. Peptides were obtained from GeneCust (France) with >95% purity. FITC-labeled peptides (N-terminally FITC-labeled without spacer and C-terminally amidated) were dissolved in dimethyl sulfoxide (DMSO), and unlabeled peptides (N-terminally acetylated and C-terminally amidated) were dissolved in 50 mM phosphate buffer pH 7.4. Saturation measurements were performed using a serial dilution of the protein domains in phosphate buffer (25 μL) and the addition of 10 nM FITC-labeled peptide (in phosphate buffer supplemented with 2 mM DTT) (25 μL). […] All measurements were performed in three technical replicates. The data were analyzed using GraphPad Prism version 9.2.0 for MacOS (GraphPad Software, San Diego, California USA, www.graphpad.com). The saturation curves were fitted to the quadratic equation, and the displacement curves were fitted to a sigmoidal dose-response equation as described previously.
# FLAG-USP20 = assay: IP-MS of FLAG-USP20 and variants vs empty vector; type: cell-based, human; conditions: IP-MS, FLAG-USP20-ΔUBP vs EV; comparison bh_2 Sample_Limma_ImpMedInt_USP20_UBP_domain/EV
# Protocol: For transfection, 1x10^6 HEK293 cells were seeded in 10 cm dishes with DMEM, 10% FBS, 1% L-G (without antibiotic) medium, incubated at 37 °C, with 5 % CO2 for 24 h. Cells were transfected with a transfection mix containing 970 mL of Opti-MEM (Thermo Fisher Scientific), 20 μL of PEI stock (1 mg/mL) and 5 mg of the desired cDNA. For co-transfection, 2.5 μg of DNA of each plasmid was used. The mix was vortexed for 15 s and incubated at room temperature for 15–20 min. The transfection mix was added to the dish and gently mixed. Plates were incubated at 37 °C for 36–48 h before harvesting. For USP33 constructs, 5 μM Bortezomib (proteasome inhibitor) was added 4 hours before harvesting the cells.
# FLAG fusion proteins were immunoprecipitated from HEK293 cells transfected with plasmids encoding the protein of interest using the anti-FLAG M2 affinity gel from Sigma-Aldrich. […] The cell lysate was clarified by centrifugation at 17,000 x g, at 4 °C for 12 min, and the supernatant was transferred to a clean, pre-chilled low-binding Eppendorf tube. […] The IP samples were centrifuged at 6500 x g at 4 °C for 30 s. The supernatant containing the unbound proteins was transferred to a clean tube. The resin was washed three times with 500 μL of TBS, centrifuged at 6500 x g at 4 °C for 30 s. The bound FLAG fusion protein was eluted with 100 μL of 150 ng/μL 3X FLAG peptide (Sigma) in TBS and incubated in the cold room for 1 h or overnight. The tube was centrifuged at 6500 x g at 4 °C for 30 s; the eluted proteins were transferred to a clean tube. The eluted proteins were prepared for analysis by western blot or Mass Spectrometry.
# Immunoprecipitation (IP) was carried out as described above; four technical replicates of each IP condition were performed, and the empty vector was used as a negative control. The eluted protein was processed following the Strap-micro protocol (Protifi). The IP elution containing 1–100 μg protein was 1:1 mixed with 2X lysis buffer (10% SDS, 100 mM TEAB pH 8.5). […] Samples were vortexed, mixed with 165 μL of 100 mM TEAB in 90% methanol, and passed through an S-Trap micro column at 4000 g for 30 s to trap the proteins. The column was washed with 150 μL of 100 mM TEAB in 90% methanol (at 4,000 x g for 30 seconds) three times. The S-Trap column was centrifuged again and transferred to a clean 2 mL tube for digestion with 20 μL of digestion buffer (1 μg trypsin per 10 μg sample in 50 mM TEAB), at 37 °C overnight in a thermomixer without shaking. The digested peptides were eluted with 40 mL of 50 mM TEAB in water, 40 mL of 0.2 % formic acid in water, and 40 mL of 50 % acetonitrile in water, centrifuging at 4000 x g for 1 min each time. The three elutions were pooled in a low-binding tube, placed on dry ice until frozen, dried in a SpeedVac vacuum (Thermo Scientific), and proceeded with the LCMS analysis.
# Protein groups identified with a single peptide or quantified in fewer than three replicates in at least 1 condition were filtered out. Protein group intensities were median normalized and missing values were imputed using a Gaussian distribution centered on the median with a downshift of 1.8 and width of 0.3 (relative to the standard deviation).
# FLAG-USP33 = assay: IP-MS of FLAG-USP33 and variants vs empty vector; type: cell-based, human
# Protocol: For transfection, 1x10^6 HEK293 cells were seeded in 10 cm dishes with DMEM, 10% FBS, 1% L-G (without antibiotic) medium, incubated at 37 °C, with 5 % CO2 for 24 h. Cells were transfected with a transfection mix containing […] of Opti-MEM (Thermo Fisher Scientific), 20 μL of PEI stock (1 mg/mL) and […] of the desired cDNA. For co-transfection, 2.5 μg of DNA of each plasmid was used. The mix was vortexed for 15 s and incubated at room temperature for 15–20 min. The transfection mix was added to the dish and gently mixed. Plates were incubated at 37 °C for 36–48 h before harvesting. For USP33 constructs, 5 μM Bortezomib (proteasome inhibitor) was added 4 hours before harvesting the cells.
# FLAG fusion proteins were immunoprecipitated from HEK293 cells transfected with plasmids encoding the protein of interest using the anti-FLAG M2 affinity gel from Sigma-Aldrich. Cell pellets were lysed with 100–200 μL/per dish lysis buffer (Pierce RIPA buffer, 1X protease inhibitor (Roche), 50 unit/μL of Benzonase Nuclease) rotating at 4 °C for 30–45 min. […] The cell lysate was clarified by centrifugation at 17,000 x g, at 4 °C for 12 min, and the supernatant was transferred to a clean, pre-chilled low-binding Eppendorf tube. […] The IP samples were centrifuged at 6500 x g at 4 °C for 30 s. The supernatant containing the unbound proteins was transferred to a clean tube. The resin was washed three times with 500 μL of TBS, centrifuged at 6500 x g at 4 °C for 30 s. The bound FLAG fusion protein was eluted with 100 μL of 150 ng/μL 3X FLAG peptide (Sigma) in TBS and incubated in the cold room for 1 h or overnight. The tube was centrifuged at 6500 x g at 4 °C for 30 s; the eluted proteins were transferred to a clean tube. The eluted proteins were prepared for analysis by western blot or Mass Spectrometry.
# Immunoprecipitation (IP) was carried out as described above; four technical replicates of each IP condition were performed, and the empty vector was used as a negative control. The eluted protein was processed following the Strap-micro protocol (Protifi). The IP elution containing 1–100 μg protein was 1:1 mixed with 2X lysis buffer (10% SDS, 100 mM TEAB pH 8.5). […] Samples were vortexed, mixed with 165 μL of 100 mM TEAB in 90% methanol, and passed through an S-Trap micro column at 4000 g for 30 s to trap the proteins. The column was washed with 150 μL of 100 mM TEAB in 90% methanol (at 4,000 x g for 30 seconds) three times. The S-Trap column was centrifuged again and transferred to a clean 2 mL tube for digestion with 20 μL of digestion buffer (1 μg trypsin per 10 μg sample in 50 mM TEAB), at 37 °C overnight in a thermomixer without shaking. The digested peptides were eluted with […] of 50 mM TEAB in water, […] of 0.2 % formic acid in water, and […] of 50 % acetonitrile in water, centrifuging at 4000 x g for 1 min each time. The three elutions were pooled in a low-binding tube, placed on dry ice until frozen, dried in a SpeedVac vacuum (Thermo Scientific), and proceeded with the LCMS analysis.
# Eluted peptides were resuspended in water supplemented with 0.015% dodecyl maltoside and 0.1% formic acid and were injected on a Vanquish Neo UHPLC System operating in trap and elute mode coupled to an Orbitrap Astral Mass Spectrometer (Thermo Fisher Scientific). […] Eluted peptides were analyzed using data-independent acquisition mode on the mass spectrometer.
# Peptides were searched against the Uniprot Swissprot Human database (released on 02/01/2023) supplemented with the USP20 and USP33 mutants using DiaNN (v1.9.0)[62] operating in library-free mode. Data filtering and statistical analysis were carried out in Python (v3.9.0) using the packages pandas, numpy, sklearn, scipy, rpy2, Plotnine, and Plotly and R (v4.4.3) using the package limma.
# Protein groups identified with a single peptide or quantified in fewer than three replicates in at least 1 condition were filtered out. […]
# USP20 zf-UBP domain = molecular target: T4, USP20 zf-UBP domain (Homo sapiens, UniProt Q9Y2K6); assay: Peptide SPOT array, USP20 zf-UBP; type: binding; conditions: array of 120 peptides probed with GST-tagged zf-UBP domains of USP20 and USP33
# T4 construct: USP20_UBP; Q9Y2K6; zf-UBP; 99; 6xHis-GST (N, cleaved yes); made in house; host or cells: Escherichia coli BL21-Gold (DE3)
# T4 sequence (Q9Y2K6 4-99): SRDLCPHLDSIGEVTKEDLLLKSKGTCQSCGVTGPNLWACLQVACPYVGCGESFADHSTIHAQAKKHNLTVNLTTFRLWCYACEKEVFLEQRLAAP
# Protocol: Peptides were synthesized on cellulose membranes with standard Fluoroenylmethylox-ycarbonyl (Fmoc) chemistry using a Multipep automated synthesizer at INTAVIS (Tübingen, Germany) or ordered from JPT (PepSpots). […] The images were analyzed in Fiji (ImageJ2 version 2.9.0).
compound,measurement,setting,value
CSCC[C@H](NC(=S)Nc1ccc2c(c1)C(=O)OC21c2ccc(O)cc2Oc2cc(O)ccc21)C(=O)N[C@@H](CC(=O)O)C(=O)N[C@@H](CC(=O)O)C(=O)N[C@@H](CC(=O)O)C(=O)N[C@@H](Cc1ccccc1)C(=O)N[C@@H](CCC(N)=O)C(=O)N[C@@H](CC(C)C)C(=O)N[C@@H](CCCNC(=N)N)C(=O)N[C@@H](CO)C(=O)N[C@@H](Cc1ccccc1)C(=O)N[C@@H](CC(=O)O)C(=O)N[C@@H](CCC(N)=O)C(=O)N[C@@H](CC(C)C)C(=O)N[C@@H](CO)C(N)=O [FITC-HIF1A568-581] ({FITC}-MDDDFQLRSFDQLS-NH2),Kd,"USP33 DUSP2 N835A; FP, FITC-labeled probe peptide, single mutant domain (Fig. 5F), technical triplicate, read-out: KD, USP33 DUSP2 N835A with FITC-labeled probe peptide",> 300 µM
same,Kd,"USP33 DUSP2 K863E-K865E; FP, FITC-labeled probe peptide, double mutant domain (Fig. 5F), technical triplicate, read-out: KD, USP33 DUSP2 K863E-K865E with FITC-labeled probe peptide",> 300 µM
CSCC[C@H](NC(=S)Nc1ccc2c(c1)C(=O)OC21c2ccc(O)cc2Oc2cc(O)ccc21)C(=O)N[C@@H](CC(=O)O)C(=O)N[C@@H](CC(=O)O)C(=O)N[C@@H](CC(=O)O)C(=O)N[C@@H](Cc1ccccc1)C(=O)N[C@@H](CCC(N)=O)C(=O)N[C@@H](CC(C)C)C(=O)N[C@@H](CCCNC(=N)N)C(=O)N[C@@H](CO)C(=O)N[C@@H](Cc1ccccc1)C(=O)N[C@@H](CC(=O)O)C(=O)N[C@@H](CCC(N)=O)C(=O)N[C@@H](CC(C)C)C(=O)N[C@@H](CO)C(N)=O [FITC_HIF1A] ({FITC}-MDDDFQLRSFDQLS-NH2),Kd,"USP33 DUSP2 N835A; USP33_DUSP2_N835A, direct FP titration (saturation) of the FITC-labelled peptide, read-out: KD",~353 µM
same,Kd,USP33 DUSP2 domain,31.3 µM
same,Kd,"USP33 DUSP2 K863E-K865E; USP33_DUSP2_K863E/K865E, direct FP titration (saturation) of the FITC-labelled peptide, read-out: KD",~319 µM
ESYT2,log2_FC,FLAG-USP20,1.764
same,log2_FC,"FLAG-USP33; IP-MS, FLAG-USP33 UBP mutant vs EV, comparison USP33_E86K_D90R/EV, Limma",1.582
same,log2_FC,"FLAG-USP33; IP-MS, FLAG-USP33 vs EV, comparison USP33_wt/EV, Limma",1.824
same,log2_FC,"FLAG-USP33; Table S7c USP33 MS_and_motif, bait USP33",1.824
TMEM131L,log2_FC,FLAG-USP20,4.636
TQNLEDREVLNGVQTE [PARD3B],"binding in peptide SPOT array, USP20 versus USP33 zf-UBP",USP20 zf-UBP domain,only bound to USP20
